# In patent US12116564B2, “Cells expressing recombinant growth factor receptors” (INSTIL BIO (UK) LIMITED, priority 2015, dated 2024):
# T1: TpoR F104S (Homo sapiens, UniProt P40238, F104S)
# T1 sequence (P40238 26-635 F104S): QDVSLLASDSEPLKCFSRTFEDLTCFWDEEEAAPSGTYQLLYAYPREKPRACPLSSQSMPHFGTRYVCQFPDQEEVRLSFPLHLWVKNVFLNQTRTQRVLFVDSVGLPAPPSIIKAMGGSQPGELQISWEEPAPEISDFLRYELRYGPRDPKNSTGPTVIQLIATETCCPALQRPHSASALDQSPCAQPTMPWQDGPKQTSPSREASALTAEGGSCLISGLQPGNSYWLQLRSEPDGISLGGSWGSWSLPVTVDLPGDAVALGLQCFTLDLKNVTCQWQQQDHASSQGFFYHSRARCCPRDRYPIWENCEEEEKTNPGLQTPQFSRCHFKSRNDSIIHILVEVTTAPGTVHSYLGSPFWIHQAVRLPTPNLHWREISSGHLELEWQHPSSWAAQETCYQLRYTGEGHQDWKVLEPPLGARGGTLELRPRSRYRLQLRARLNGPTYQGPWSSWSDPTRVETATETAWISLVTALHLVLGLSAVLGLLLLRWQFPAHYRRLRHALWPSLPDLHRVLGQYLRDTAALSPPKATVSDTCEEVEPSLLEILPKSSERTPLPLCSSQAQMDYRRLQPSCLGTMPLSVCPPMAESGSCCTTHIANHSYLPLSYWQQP
# B1: Tpo: recombinant human Tpo (Miltenyi Biotec), native ligand of the thrombopoietin receptor (protein)
# chain: SPAPPACDLRVLSKLLRDSHVLHSRLSQCPEVHPLPTPVLLPAVDFSLGEWKTQMEETKAQDILGAVTLLLEGVMAARGQLGPTCLSSLLGQLSGQVRLLLGALQSLLGTQLPPQGRTTAHKDPNAIFLSFQHLLRGKVRFLMLVGGSTLCVRRAPPTTAVPSRTSLVLTLNEL
# Columns and labels:
# [1] = tested on: WT TpoR transduced primary human T-cells; type: cell-based; conditions: for response in relative increase of cell number as concentration increases: varying concentrations, three and five days
# Procedure: Transduced primary human T-cells were incubated with the indicated concentrations of each drug and cells counted after three and five days
# (§1) Following expansion cells were washed excessively to remove any exogenous IL2 and plated into 96-well U-bottom plates. Cells were supplemented with IL2 (Proleukin), recombinant human Tpo (Miltenyi Biotec) or Eltrombopag (Stratech Scientific, Suffolk, UK). At various time points thereafter cells were either stained with a 1:400 dilution of eFlor-450 fixable viability dye (eBioscience, UK) and counted directly from the wells using a MACSQuant Cytometer, or were stained with viability dye plus phycoerythrin conjugated anti-CD110 antibodies (Miltenyi Biotec, UK) and analysed using a MACSQuant cytomter. Cell viability and/or transduction level was then analysed using MACSQuantify software (Miltenyi Biotec, UK).
# After three and five days the cells were stained with EFlor-450 Live/dead fixable viability dye and the cells in each well counted by flow cytometry.
# [2] = tested on: melanoma TIL transduced with WT TpoR; test: Enrichment of TpoR+ cells in WT TpoR transduced melanoma tumour infiltrating lymphocytes; type: cell-based, human; conditions: for TpoR+ cells after enrichment: from 65% TpoR+
# Procedure: FIG. 12—Analysis of WT TpoR activity in Melanoma Tumour Infiltrating Lymphocytes. Tumour infiltrating lymphocytes (TIL) established from a cutaneous melanoma lesion were lentivirally transduced with the WT TpoR rGFR. The TIL were incubated in the presence of 200 IU/ml IL2 or the indicated concentrations of Tpo or Eltrombopag. At days 2 and 5 cells were removed, stained with PE conjugated anti-CD110 antibodies and analysed using a MACSQuant analyser.
# Next we aimed to determine whether the WT TpoR was functionally active in Tumour Infiltrating Lymphocytes (TIL). It was possible that the high doses of IL2 used to generate TIL cultures could make them more dependent on IL2 for subsequent growth. To this end we added lentiviral supernatants to melanoma TIL cultures. Cells were transduced to 65% (FIG. 12). The TILs were cultured in the presence of 200 IU/ml IL-2, or Eltrombopag or Tpo. Cells were analysed for TpoR expression at days 2 and 5. […] In contrast there was no enrichment of TpoR+ cells in the presence of IL2 supporting the notion that this is driven by signals through the TpoR.
# [3] = tested on: primary human T-cells harbouring the WT TpoR; test: Enrichment of TpoR+ cells (anti-CD110 flow cytometry), WT TpoR T-cells diluted to 20% transduction; type: cell-based; conditions: for TpoR positive cells after enrichment: start 20% transduced, up to nine days
# Procedure: as §1, with “FIG. 6—Enrichment kinetics of modular T-cell growth signal receptor engineered T-cells to varying concentrations of IL-2, Eltrombopag (Elt) or thrombopoietin (Tpo). Transduced primary human T-cells were diluted with non-transduced cells to a 20% transduction level. Cells were incubated with the indicated concentrations of each drug and the enrichment of each population established at the indicated time points by staining cells with anti-CD110-PE antibodies. Following expansion” for “Following expansion”, “Biotec, UK). Additional cells were diluted with non-transduced cells to achieve a population with 20% transduction efficiency. […] After three, six and nine days the cells were stained with anti-CD110 (TpoR) antibodies and analysed by flow cytometry.” for “Biotec, UK).”
# [4] = tested on: primary human T-cells harbouring the mt TpoR; test: Enrichment of TpoR+ cells (anti-CD110 flow cytometry), mt (truncated) TpoR T-cells diluted to 20% transduction; type: cell-based; conditions: for TpoR positive cells after enrichment: start 20% transduced, up to nine days
# Procedure: as §1, with “FIG. 6—Enrichment kinetics of modular T-cell growth signal receptor engineered T-cells to varying concentrations of IL-2, Eltrombopag (Elt) or thrombopoietin (Tpo). Transduced primary human T-cells were diluted with non-transduced cells to a 20% transduction level. Cells were incubated with the indicated concentrations of each drug and the enrichment of each population established at the indicated time points by staining cells with anti-CD110-PE antibodies. Following expansion” for “Following expansion”, “Biotec, UK). Additional cells were diluted with non-transduced cells to achieve a population with 20% transduction efficiency. […] After three, six and nine days the cells were stained with anti-CD110 (TpoR) antibodies and analysed by flow cytometry.” for “Biotec, UK).”
# [5] = 73 healthy volunteers, higher doses; cited from earlier work
# [6] = tested on: Ba/F3 cells transduced with TpoR-HGHR variant; test: Enrichment of transduced Ba/F3 cells, TpoR-HGHR; type: cell-based, murine; conditions: 0.5 μM Eltrombopag or 1.0 μM Tpo; days 3, 5 and 7
# Procedure: (§2) FIG. 10—Analysis of rGFR variants in Ba/F3 cells. The IL3 dependent cell line Ba/F3 was transduced with the indicated rGFR variants and incubated in the presence of 1 μM Tpo, 0.5 μM Eltrombopag or 0.5 ng/ml IL3. Cells were taken at days 3, 5 and 7 stained with PE conjugated anti-CD110 antibodies and analysed using a MACSQuant analyser.
# (§3) To determine whether the new variants generated were functionally active we transduced the IL3 dependent cell line Ba/F3 and incubated the cells with either IL-3, 0.5 μM Eltrombopag or 1.0 μM Tpo and measured the proportion of cells expressing the indicated TpoR at days 3, 5 and 7.
# [7] = tested on: Ba/F3 cells transduced with WT TpoR; test: Enrichment of transduced Ba/F3 cells, WT TpoR; type: cell-based, murine; conditions: 0.5 μM Eltrombopag or 1.0 μM Tpo; days 3, 5 and 7
# Procedure: as §2, §3
# [8] = tested on: Ba/F3 cells transduced with F104S TpoR variant; test: Enrichment of transduced Ba/F3 cells, F104S TpoR; type: cell-based, murine; conditions: 0.5 μM Eltrombopag or 1.0 μM Tpo; days 3, 5 and 7
# Procedure: as §2, §3
# [9] = tested on: Ba/F3 cells transduced with TpoR-PrIR variant; test: Enrichment of transduced Ba/F3 cells, TpoR-PrIR; type: cell-based, murine; conditions: 0.5 μM Eltrombopag or 1.0 μM Tpo; days 3, 5 and 7; compared with the other variants
# Procedure: as §2, §3
# TpoR F104S = molecular target: T1, TpoR F104S; conditions: Fox et al 2010; cited from earlier work
Molecule,response in relative increase of cell number as concentration increases [1],enrichment of TpoR+ cells ([2]; 200 IU/ml IL-2),enrichment of TpoR positive cells over time ([3]; 100 IU/ml IL-2 alone),enrichment of TpoR positive cells over time ([4]; 100 IU/ml IL-2 alone),"concentration at which responses (relative increase of cell number) are maximal ([1]; 94% transduced, 5×10^4 cells/well, counted after three and five days)",toxicity to the T-cells ([1]; concentrations above around 0.1 μM),TpoR+ cells after enrichment ([2]; high (1.0 μM) Eltrombopag),TpoR+ cells after enrichment ([2]; low (0.1 μM) Eltrombopag),TpoR positive cells after enrichment ([3]; 0.5 μM Eltrombopag),tolerability [5],TpoR positive cells after enrichment ([4]; 0.5 μM Eltrombopag),functional activity (enrichment of transduced cells) [6],enrichment of transduced cells [7],maximal response compared with Eltrombopag or IL-2 ([1]; possibly optimal concentrations not used),enrichment of TpoR+ T-cells ([2]; high (1 μM) Tpo),enrichment of transduced cells [8],functional activity (enrichment of transduced cells) [9],effect of the F104S extracellular point mutation on responsiveness to the ligand (TpoR F104S),TpoR positive cells after enrichment ([3]; 10.0 μM Tpo),TpoR positive cells after enrichment ([4]; 10.0 μM Tpo)
"IL-2: IL2 (Proleukin), cytokine normally required for optimal T-cell growth",dose dependent responses,no enrichment,did not become enriched over time,did not become enriched over time,,,,,,,,,,,,,,,,
CC1=NN(c2ccc(C)c(C)c2)C(=O)/C1=N\Nc1cccc(-c2cccc(C(=O)O)c2)c1O [Eltrombopag],,,,,around 0.1 μM,becoming toxic,90%,89%,83.5%,without tolerability problems,66.6%,,,,,,,,,
B1,dose dependent responses,,,,,,,,,,,functional activity,able to support the enrichment of transduced cells,did not see maximal responses to Tpo comparable to those seen with Eltrombopag or IL-2,able to induce enrichment,much reduced activity,less robust responses,prevent responsiveness,87.5%,77.9%
